Reference: ChEMBL document CHEMBL5303304, “EUbOPEN Chemogenomics Library - IncuCyte” (2023)

What was measured:
Type in all cases: toxicity, cell-based
Fibroblast = assay: Incucyte cell viability with human fibroblast; settings: 10 µM, compound concentration 10 uM
HEK-293T = assay: Incucyte cell viability with HEK293T; settings: human, 10 µM, compound concentration 10 uM
U2OS = assay: Incucyte cell viability with U2OS; settings: human, 10 µM, compound concentration 10 uM
Also: unitless GR value; below 1 slowed growth and below 0 cell loss.

Row | SMILES | Growth Rate (Fibroblast; 0 h, replicate number 2) | Growth Rate (Fibroblast; 24 h, replicate number 2) | Growth Rate (HEK-293T; 6 h, replicate number 1) | Growth Rate (HEK-293T; 6 h, replicate number 2) | Growth Rate (HEK-293T; 12 h, replicate number 2) | Growth Rate (HEK-293T; 18 h, replicate number 2) | Growth Rate (U2OS; 0 h, replicate number 1) | Growth Rate (U2OS; 24 h, replicate number 1) | Growth Rate (Fibroblast; 6 h, replicate number 2) | Growth Rate (Fibroblast; 12 h, replicate number 2) | Growth Rate (HEK-293T; 0 h, replicate number 1) | Growth Rate (HEK-293T; 0 h, replicate number 2) | Growth Rate (U2OS; 6 h, replicate number 1) | Growth Rate (U2OS; 12 h, replicate number 1) | Growth Rate (U2OS; 18 h, replicate number 1) | Growth Rate (Fibroblast; 12 h, replicate number 1) | Growth Rate (HEK-293T; 24 h, replicate number 2) | Growth Rate (U2OS; 6 h, replicate number 2) | Growth Rate (U2OS; 12 h, replicate number 2) | Growth Rate (U2OS; 24 h, replicate number 2) | other results
1 | Cc1cc2ncnn2cc1Nc1ncc2c(n1)n(C1CCOCC1)c(=O)n2C [AZD-7648] | 0.27 | 0.93 | 0.34 | 0.98 | 0.76 | 0.95 | 0.4 | 0.9 |  |  |  |  |  |  |  |  |  |  |  |  | Growth Rate (Fibroblast; 18 h, replicate number 2): 0.83; Growth Rate (HEK-293T; 12 h, replicate number 1): 0.78; Growth Rate (HEK-293T; 18 h, replicate number 1): 0.87; Growth Rate (HEK-293T; 24 h, replicate number 1): 0.93
2 | C[C@@H]1Cc2c([nH]c3ccccc23)[C@@H](c2c(F)cc(/C=C/C(=O)O)cc2F)N1CC(C)(C)F [AZD-9496] |  | 0.65 |  |  |  |  | 0.01 | 0.91 | -0.38 | 0.62 | -0.59 | -0.31 | 0.39 | 0.94 | 0.92 |  |  |  |  |  | Growth Rate (Fibroblast; 18 h, replicate number 2): 0.88
3 | Cc1onc(-c2ccc(F)cc2)c1COc1ccc(C(=O)N2CCS(=O)(=O)CC2)cn1 [BASMISANIL] | -0.96 |  |  | 0.2 | 0.86 | 0.92 |  | 0.86 | -0.92 | 0.69 |  |  | 0.73 | 0.73 | 0.87 | -1 | 0.94 | 0.62 | 0.8 | 0.82 | Growth Rate (Fibroblast; 18 h, replicate number 1): -0.07; Growth Rate (HEK-293T; 24 h, replicate number 1): 0.97; Growth Rate (U2OS; 18 h, replicate number 2): 0.98
4 | C[C@@H]1OCC2(CCN(c3cnc(Sc4ccnc(N)c4Cl)c(N)n3)CC2)[C@@H]1N [BATOPROTAFIB] | 0.47 |  |  |  |  |  | 0.89 | 0.69 | -0.69 | 0.8 | 0.52 | -0.24 | 0.3 | 0.53 | 0.78 |  |  | 0.99 | 0.78 | 0.99 | Growth Rate (Fibroblast; 0 h, replicate number 1): -1; Growth Rate (U2OS; 18 h, replicate number 2): 0.91
5 | COc1cc2c(cc1CC=C(C)C)C(=O)C[C@@H](c1ccc(O)cc1)O2 [BAVACHININ A] | -0.08 |  |  | 0.97 | 0.94 | 0.89 | -0.43 | 0.73 | 0.81 |  | -0.07 | -0.67 |  | 0.89 | 0.89 |  | 0.92 | 0.85 |  | 0.99 | Growth Rate (Fibroblast; 24 h, replicate number 1): 0.99
6 | Cc1ccccc1Oc1cc(-n2c(=O)cc(C(F)(F)F)[nH]c2=O)c2ccccc2c1Cl [BAY-069] | 0.05 |  | 0.59 | 0.24 | 0.38 | 0.39 | -0.77 | 0.81 |  |  | 0.78 | -0.96 | 0.02 | -0.7 | 0.63 | 0.51 | 0.45 | 0.72 | 0.77 | 0.86 | Growth Rate (Fibroblast; 0 h, replicate number 1): 0.91; Growth Rate (Fibroblast; 6 h, replicate number 1): 0.84; Growth Rate (Fibroblast; 18 h, replicate number 1): 0.76; Growth Rate (Fibroblast; 24 h, replicate number 1): 0.75; Growth Rate (HEK-293T; 12 h, replicate number 1): 0.74; Growth Rate (HEK-293T; 18 h, replicate number 1): 0.72; Growth Rate (HEK-293T; 24 h, replicate number 1): 0.64; Growth Rate (U2OS; 0 h, replicate number 2): 0.42; Growth Rate (U2OS; 18 h, replicate number 2): 0.86
7 | CC[C@@H](Nc1c(C#N)c(-c2ccc(-c3cccc(C)c3F)cc2)nc2cnccc12)C(=O)O [BAY-091] | -0.33 | 0.84 | 0.68 | 0.63 | 0.85 | 0.85 |  | 0.81 | 0.39 | 0.58 |  | 0.76 | 0.82 | 0.7 | 0.68 | 0.86 | 0.88 |  |  |  | Growth Rate (Fibroblast; 0 h, replicate number 1): -0.38; Growth Rate (Fibroblast; 6 h, replicate number 1): 0.59; Growth Rate (Fibroblast; 18 h, replicate number 1): 0.96; Growth Rate (Fibroblast; 18 h, replicate number 2): 0.73; Growth Rate (Fibroblast; 24 h, replicate number 1): 0.88; Growth Rate (HEK-293T; 12 h, replicate number 1): 0.65; Growth Rate (HEK-293T; 18 h, replicate number 1): 0.86; Growth Rate (HEK-293T; 24 h, replicate number 1): 0.78
8 | CC[C@H](Nc1c(C#N)c(-c2ccc(-c3cccc(C)c3F)cc2)nc2cnccc12)C(=O)O [BAY-0361] |  | 0.84 | 0.67 | 0.74 | 0.98 | 0.94 |  | 0.91 | 0.85 | 0.93 |  | 0.79 | 0.1 | 0.56 | 0.74 | 0.65 | 0.98 |  |  |  | Growth Rate (Fibroblast; 6 h, replicate number 1): 0.67; Growth Rate (Fibroblast; 18 h, replicate number 1): 0.75; Growth Rate (Fibroblast; 24 h, replicate number 1): 0.8; Growth Rate (HEK-293T; 12 h, replicate number 1): 0.79; Growth Rate (HEK-293T; 18 h, replicate number 1): 0.91; Growth Rate (HEK-293T; 24 h, replicate number 1): 0.92
9 | O[C@]1(C(F)(F)F)CCCC[C@H]1Nc1ccc(F)cc1 [BAY-390] | 0.2 |  |  | 0.5 | 0.95 |  | -0.18 | 0.74 |  |  | -0.2 | -0.23 | 0.4 | 0.57 | 0.69 | 0.69 |  | 0.7 | 0.8 | 0.93 | Growth Rate (Fibroblast; 6 h, replicate number 1): 0.19; Growth Rate (Fibroblast; 18 h, replicate number 1): 0.78; Growth Rate (Fibroblast; 24 h, replicate number 1): 0.89; Growth Rate (U2OS; 0 h, replicate number 2): 0.62
10 | Cc1c(N2CCNCC2)nc2ccc(Br)cc2c1C(=O)NC[C@H](CCC(=O)O)c1ccccc1Cl [BAY-403] | 0.9 | 0.7 | 0.58 | 0.8 | 0.81 | 0.9 | -0.04 | 0.95 | 0.04 | 0.12 |  | -0.32 | 0.58 | 0.84 | 0.91 |  |  | 0.52 |  |  | Growth Rate (Fibroblast; 0 h, replicate number 1): 0.47; Growth Rate (Fibroblast; 18 h, replicate number 2): 0.51; Growth Rate (HEK-293T; 18 h, replicate number 1): 0.76; Growth Rate (HEK-293T; 24 h, replicate number 1): 0.88
11 | C[C@H](c1ccnc(Nc2nc3ccc(-c4cc(N(C)C)ncn4)cc3[nH]2)c1)N1CCN(C(=O)CC(F)(F)F)CC1 [BAY-985] | -1 |  | 0.4 | 0.84 | 0.95 | 0.94 | -0.23 |  | -0.72 |  | 0.79 | 0.27 |  |  |  | -1 | 0.92 |  | 0.94 |  | Growth Rate (Fibroblast; 6 h, replicate number 1): 0.99; Growth Rate (Fibroblast; 24 h, replicate number 1): 0.04
12 | CCc1ccccc1C(=O)Nc1n[nH]c2c(C)c(F)c(C3C(C#N)=C(C)N(C)C(C)=C3C#N)cc12 [BAY-3827] | -0.1 |  |  | 0.11 | 0.34 | 0.66 |  | 0.9 |  |  | 0.25 | -0.99 |  | 0.96 | 0.9 |  | 0.71 | 0.51 | 0.66 | 0.57 | Growth Rate (Fibroblast; 0 h, replicate number 1): 0.47; Growth Rate (HEK-293T; 18 h, replicate number 1): 0.99; Growth Rate (U2OS; 18 h, replicate number 2): 0.62
13 | Cc1c(N2CCCC2)nc2ccc(Br)cc2c1C(=O)NC[C@H](CCC(=O)O)c1ccccc1Cl [BAY-6672] |  | 0.89 |  |  | 0.76 | 0.38 | 0.89 | 0.98 |  |  | -0.43 |  | 0.7 | 0.88 | 0.67 | 0.91 | 0.44 | 0.83 | 0.83 | 0.79 | Growth Rate (Fibroblast; 6 h, replicate number 1): 0.13; Growth Rate (Fibroblast; 18 h, replicate number 1): 0.97; Growth Rate (Fibroblast; 18 h, replicate number 2): 0.93; Growth Rate (U2OS; 0 h, replicate number 2): 0.47; Growth Rate (U2OS; 18 h, replicate number 2): 0.9
14 | COc1cc(N[C@@H]2CCCC[C@]2(O)C(F)(F)F)ccc1F [BAY-9897] |  |  |  | 0.88 | 0.88 |  | -0.16 | 0.88 |  |  | 0.51 | 0.5 | 0.53 | 0.68 | 0.78 | 0.82 |  |  |  | 0.77 | Growth Rate (U2OS; 18 h, replicate number 2): 0.96
15 | Cl.N/C(=N\C(=O)c1nc(Cl)c(N)nc1N)NCc1ccccc1 [BENZAMIL HYDROCHLORIDE] |  | 0.74 | 0.83 | 0.79 | 1 |  | 0.13 |  | -0.19 | 0.56 |  |  |  |  | 1 |  |  |  | 0.99 | 0.94 | Growth Rate (Fibroblast; 0 h, replicate number 1): 0.69; Growth Rate (Fibroblast; 6 h, replicate number 1): -0.25; Growth Rate (Fibroblast; 18 h, replicate number 2): 0.68
